In patent US20160115540A1, “PRODRUGS AND DRUGS” (Biogen MA Inc., priority 2013, published 2016):
Counter-ions that a name gives are not always drawn.

System: kidney
Test: Transcriptional profiling on Affymetrix GeneChips, single dose, naïve mice: kidney
Assay type: in vivo, C57BL/6 mice
Conditions: 100 DMF-vs-Veh, 2 h
Experimental: Treated mice were sacrificed at 2, 7, or 12 hours. Tissues (liver, spleen, kidney, jejunum, cortex, hippocampus, striatum and whole blood) were collected and analyzed by transcriptional profiling on mouse Affymetrix GeneChips.
Tissues (liver, spleen, kidney, jejunum, cortex, hippocampus, striatum and whole blood) were collected and analyzed by transcriptional profiling on mouse Affymetrix GeneChips.
Animals were exposed to CO2 and whole blood collected via cardiac puncture. Two 100 μl aliquots of whole blood were collected in 1.5 mL microcentrifuge tubes and snap frozen in liquid nitrogen. Peripheral (liver, spleen, kidney and jejunum) and CNS brain (cerebellum, hippocampus, striatum and cortex) tissues were harvested and snap frozen in liquid nitrogen, with special care taken to collect tissues of similar size and from the same location. All samples were stored at −80° C. until RNA extraction was conducted.
For RNA preparation, frozen tissues were placed in 2 mL RNAse-free 96-well blocks with 1.5 mL QIAzol Lysis Reagent (QIAgen) and a 3.2 mm stainless steel bead (BioSpec Products, Bartlesville, Okla.). Tissues were disrupted for four cycles of 45 seconds in a Mini-Beadbeater (Biospec Products). RNA was extracted in chloroform and the aqueous phase was mixed with an equal volume of 70% ethanol. Extracted RNA was applied to RNeasy 96 plates and purified by the spin method according to the manufacturer's protocol (RNeasy 96 Universal Tissue Protocol, QIAgen, Hilden Germany).
Automated sample amplifications and biotin labelings were carried out using the NuGEN Ovation RNA Amplification system V2 (Cat #3100), Ovation WB reagent (Cat #1300) and Encore Biotin module (Cat #4200) (NuGEN Technologies, Inc, San Carlos, Calif.) according to manufacturer's recommendations using an Arrayplex automated liquid handler (Beckman Coulter, Indianapolis, Ind.). Two micrograms of biotin labeled sscDNA probe were hybridized to Affymetrix GeneChip Affymetrix HT_MG-430_PM plate arrays with modified conditions as described in Allaire et al. Washing and staining of the hybridized arrays were completed as described in the GeneChip Expression analysis technical manual for HT plate arrays using the Genechip® Array Station (Affymetrix, Santa Clara, Calif.) with modifications as described in Allaire et al. The processed GeneChip® plate arrays were scanned using GeneTitan scanner (Affymetrix, Santa Clara, Calif.).
Affymetrix scans were subject to quality control (QC) measures. These tests included a visual inspection of the distribution of raw signal intensities and an assessment of RNA degradation, relative log expression (RLE), and normalized unsealed standard error (NUSE). All sample scans that passed these QC metrics were included in the analysis.
All CEL files were subjected to GC-content-based Robust Multi-array Average (GCRMA) normalization (version 2.20.0) (Irizarry R A, et al. Nucleic Acids Res 2003; 31:e15; Li C, et al. Genome Biol 2001; 2:[…]0032). Expression levels were log (base 2) transformed.
All calculations and analyses were carried out using R (version 2.11.1) and Bioconductor computational tools (Gentleman R. Springer Science+Business Media 2005).

`COC(=O)/C=C/C(=O)OC` [DMF, dimethyl fumarate] was tested, and the “FC 1200016B10Rik 1428654_PM_at” value was 1.59, the “FC 1200016B10Rik 1452859_PM_at” value was 1.62 and the “FC 1438879_PM_at” value was −1.61. For the same compound, the “FC 1439292_PM_at” value was 2.14, the “FC 1440076_PM_at” value was 3.71 and the “FC 1440084_PM_at” value was −1.57. The “FC 1440304_PM_at” value was −1.68, the “FC 1440457_PM_at” value was 1.76 and the “FC 1440660_PM_at” value was −1.56. The “FC 1441155_PM_at” value was 1.51, the “FC 1441360_PM_at” value was 1.55 and the “FC 1441413_PM_at” value was 1.88. For the same compound, the “FC 1441455_PM_at” value was 1.58, the “FC 1441482_PM_at” value was −2.08 and the “FC 1441484_PM_at” value was −1.79. The “FC 1441518_PM_at” value was −1.67, the “FC 1441794_PM_at” value was −1.72 and the “FC 1442422_PM_at” value was 1.74. The “FC 1442483_PM_at” value was −1.59, the “FC 1442504_PM_at” value was −1.70 and the “FC 1442506_PM_at” value was 5.76. The “FC 1442671_PM_at” value was 1.55, the “FC 1442725_PM_at” value was −1.53 and the “FC 1442928_PM_at” value was 1.66. The “FC 1443100_PM_at” value was −1.63, the “FC 1443109_PM_at” value was 1.69 and the “FC 1443289_PM_at” value was −1.65. The “FC 1443335_PM_at” value was −1.78, the “FC 1443546_PM_at” value was 1.74 and the “FC 1443566_PM_at” value was −1.76. The “FC 1443673_PM_x_at” value was 2.06, the “FC 1444021_PM_at” value was 3.24 and the “FC 1444057_PM_at” value was 1.75. For the same compound, the “FC 1444111_PM_at” value was −1.67, the “FC 1444212_PM_at” value was 1.57 and the “FC 1444227_PM_at” value was 1.56. For the same compound, the “FC 1444265_PM_at” value was 1.93, the “FC 1445290_PM_at” value was −1.52 and the “FC 1445349_PM_at” value was −1.70. The “FC 1445600_PM_at” value was −1.65, the “FC 1445664_PM_at” value was −1.60 and the “FC 1446075_PM_at” value was −1.62. The “FC 1446172_PM_at” value was 1.85, the “FC 1446621_PM_at” value was 1.74 and the “FC 1446921_PM_at” value was 1.58. For the same compound, the “FC 1447172_PM_at” value was −1.61, the “FC 1447396_PM_at” value was −1.90 and the “FC 1447411_PM_at” value was 4.68. The “FC 1700012D14Rik 1438880_PM_at” value was −1.55, the “FC 1810013L24Rik 1431018_PM_at” value was 1.50 and the “FC 2200002K05Rik 1428400_PM_at” value was −1.79. For the same compound, the “FC 2210403K04Rik 1428562_PM_at” value was 1.86, the “FC 2210416J07Rik 1432665_PM_at” value was −1.87 and the “FC 2410089E03Rik 1443422_PM_at” value was −1.72. For the same compound, the “FC 2810029C07Rik 1428686_PM_at” value was −1.58, the “FC 2900011L18Rik 1432757_PM_at” value was 1.62 and the “FC 4833418N02Rik 1430686_PM_at” value was −1.51. For the same compound, the “FC 4921509J17Rik 1430244_PM_at” value was 1.60, the “FC 4932416J16Rik 1430783_PM_at” value was −1.67 and the “FC 4933427G17Rik 1431905_PM_s_at” value was −1.65. For the same compound, the “FC 5830487K18Rik 1432625_PM_at” value was −1.90, the “FC 6430571L13Rik 1439669_PM_at” value was −1.85 and the “FC 9130221J17Rik (1443159_PM_at)” value was 9.22. For the same compound, the “FC 9530086O07Rik 1430392_PM_at” value was −1.52, the “FC A130012E19Rik 1440671_PM_at” value was 1.56 and the “FC AI845619 1442726_PM_s_at” value was 5.44. For the same compound, the “FC Aars 1451083_PM_s_at” value was 1.53, the “FC Abce1 1442071_PM_at” value was 1.53 and the “FC Acvr2b 1419140_PM_at” value was −1.51. For the same compound, the “FC Adamts1 1450716_PM_at” value was 1.86, the “FC Adamts15 1427056_PM_at” value was −2.26 and the “FC Ahsa2 1435160_PM_at” value was 1.64. For the same compound, the “FC Aldh2 1437410_PM_at” value was 1.69, the “FC Alkbh1 1434660_PM_at” value was 1.53 and the “FC Anxa7 1438764_PM_at” value was 1.88. The “FC Aox1 (1419435_PM_at)” value was 2.46, the “FC Arl5b 1437884_PM_at” value was 1.93 and the “FC Arpc5l 1441190_PM_at” value was 1.70. For the same compound, the “FC Asns 1433966_PM_x_at” value was 2.54, the “FC Asns 1451095_PM_at” value was 3.03 and the “FC Atf4 1438992_PM_x_at” value was 1.77. For the same compound, the “FC Atf4 1448135_PM_at” value was 2.12, the “FC Atp1a2 1452308_PM_a_at” value was 1.84 and the “FC BC005512 /// F630007L15Rik /// Gm6958 1426936_PM_at” value was −1.67. For the same compound, the “FC BC005512 /// F630007L15Rik /// Gm6958 1435628_PM_x_at” value was −1.72, the “FC BC026585 1445857_PM_at” value was −1.51 and the “FC BC031353 1439293_PM_at” value was −1.84. The “FC Bach1 1440831_PM_at” value was 1.90, the “FC Bach1 1449311_PM_at” value was 2.55 and the “FC Bag3 1422452_PM_at” value was 2.03. The “FC Baiap2 1425656_PM_a_at” value was 1.51, the “FC Baz1a 1433599_PM_at” value was 2.51 and the “FC Baz1a /// LOC100505185 1447930_PM_at” value was 2.56. For the same compound, the “FC Bcl11b 1438784_PM_at” value was −1.52, the “FC Brd2 1423502_PM_at” value was 1.83 and the “FC Brd2 1437210_PM_a_at” value was 2.07. For the same compound, the “FC Btbd10 1438578_PM_a_at” value was 1.60, the “FC C730027H18Rik 1442546_PM_at” value was −1.57 and the “FC Cars 1452394_PM_at” value was 1.63. The “FC Cbr3 (1427912_PM_at)” value was 3.04, the “FC Ccdc30 1430593_PM_at” value was −2.01 and the “FC Ccdc117 1452218_PM_at” value was 1.54. For the same compound, the “FC Cenpe 1435005_PM_at” value was −2.20, the “FC Chac1 1451382_PM_at” value was 31.00 and the “FC Chd1 1420990_PM_at” value was 1.76. For the same compound, the “FC Chd1 1450077_PM_at” value was 1.67, the “FC Cltc 1439094_PM_at” value was 2.07 and the “FC Cyp27b1 1427372_PM_at” value was −3.22. The “FC Cyr61 1438133_PM_a_at” value was 2.64, the “FC D16Ertd778e 1445089_PM_at” value was −2.60 and the “FC Dcbld1 1418966_PM_a_at” value was 1.78. For the same compound, the “FC Ddit3 1443897_PM_at” value was 3.97, the “FC Dnaja4 1434196_PM_at” value was 1.63 and the “FC Dnajb4 1431734_PM_a_at” value was 2.15. The “FC Dnajb4 1451177_PM_at” value was 2.48, the “FC Dusp4 1428834_PM_at” value was 2.09 and the “FC Dusp5 1437199_PM_at” value was 3.68. For the same compound, the “FC E130306D19Rik 1436725_PM_at” value was −1.64, the “FC Eid3 1429350_PM_at” value was 1.84 and the “FC Eif2c3 1435904_PM_at” value was 1.53. The “FC Esd (1441604_PM_at)” value was 1.62, the “FC Fam126a 1450724_PM_at” value was 1.70 and the “FC Fbxo30 1436550_PM_at” value was 1.81. For the same compound, the “FC Fgd3 1433398_PM_at” value was 1.66, the “FC Fgf1 1441042_PM_at” value was −2.91 and the “FC Fgfbp1 1419086_PM_at” value was 1.81. For the same compound, the “FC Fn3k 1442436_PM_at” value was −1.60, the “FC Fras1 1440765_PM_at” value was −1.73 and the “FC Gadd45a 1449519_PM_at” value was 1.75. For the same compound, the “FC Gclc (1424296_PM_at)” value was 1.70, the “FC Gdap10 1420342_PM_at” value was 1.52 and the “FC Gdf15 1418949_PM_at” value was 5.39. The “FC Gm10374 1436357_PM_at” value was −1.52, the “FC Gm10804 1441759_PM_at” value was −1.67 and the “FC Gsta3 (1423437_PM_at)” value was 2.01. For the same compound, the “FC Gt(ROSA)26Sor 1452239_PM_at” value was 1.62, the “FC Hectd2 1433944_PM_at” value was 1.67 and the “FC Hinfp 1440255_PM_at” value was 1.57. The “FC Hk2 1422612_PM_at” value was 2.72, the “FC Hmox1 1448239_PM_at” value was 6.27 and the “FC Hnf1b 1421224_PM_a_at” value was −1.77. The “FC Hnf1b 1451687_PM_a_at” value was −1.82, the “FC Hsp90aa1 1426645_PM_at” value was 1.64 and the “FC Hsp90aa1 1437497_PM_a_at” value was 1.55. For the same compound, the “FC Hspa1a 1452388_PM_at” value was 2.35, the “FC Hspa1b 1427126_PM_at” value was 3.65 and the “FC Hspa1b 1427127_PM_x_at” value was 3.37. The “FC Hspa1b 1452318_PM_a_at” value was 1.70, the “FC Hspa4l 1439093_PM_at” value was 1.67 and the “FC Hspa8 /// LOC624853 1431182_PM_at” value was 2.63. For the same compound, the “FC Hsph1 1423566_PM_a_at” value was 2.40, the “FC Igf1r 1446303_PM_at” value was −1.66 and the “FC Jmjd6 1420056_PM_s_at” value was 1.52. The “FC Jmjd6 1420057_PM_at” value was 1.54 and the “FC Jun 1448694_PM_at” value was 1.50.
